From US7786171B2, “Amide derivatives as positive allosteric modulators and methods of use thereof” (Abbott Laboratories, priority 2008, dated 2010)

What was measured:
human α7 NNR = target: T1, human α7 NNR (Homo sapiens, UniProt P36544); assay: Two-electrode voltage-clamp in Xenopus laevis oocytes, potentiation of ACh-evoked α7 currents; type: cell-based; settings: for Voltage-Clamp in Xenopus laevis Oocytes % max (degree of normalized potentiation): 0.1 mM ACh, normalized to reference PAM at 10 μM = 100%, ACh alone = 0%; for EC50: potentiation of 0.1 mM ACh-evoked α7 currents
T1 construct: expressed in transfected cells; host or cells: Xenopus laevis oocytes (cRNA injection)
T1 sequence (P36544 23-502): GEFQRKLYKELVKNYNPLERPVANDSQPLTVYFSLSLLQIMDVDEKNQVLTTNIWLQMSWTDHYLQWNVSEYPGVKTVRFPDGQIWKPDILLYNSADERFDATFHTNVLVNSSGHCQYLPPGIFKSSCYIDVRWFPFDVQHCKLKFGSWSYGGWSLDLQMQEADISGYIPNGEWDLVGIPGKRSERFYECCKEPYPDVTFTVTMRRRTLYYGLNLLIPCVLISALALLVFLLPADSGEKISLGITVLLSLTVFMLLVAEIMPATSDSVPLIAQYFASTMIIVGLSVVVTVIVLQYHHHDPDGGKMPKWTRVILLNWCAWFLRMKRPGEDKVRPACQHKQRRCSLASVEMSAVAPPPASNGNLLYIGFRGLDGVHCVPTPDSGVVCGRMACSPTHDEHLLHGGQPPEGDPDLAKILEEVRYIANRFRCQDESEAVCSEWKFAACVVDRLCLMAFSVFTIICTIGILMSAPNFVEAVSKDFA
Description: X. laevis oocytes were prepared for electrophysiological experiments as described in the literature (see for example. Briggs, C. A. el al, Neuropharmacology. 1995. 34: 583-590; Briggs, C. A. et al., Neuropharmacology, 1998, 37: 1095-1102, which are incorporated herein by reference). In brief, three to four lobes from ovaries of female adult X. laevis frogs were removed and defolliculated after treatment with collagenase type 1A (2 mg/mL; Sigma) prepared in low-Ca^2+ Barth's solution (90 mM NaCl, 1.0 mM KCl, 0.66 mM NaNO3, 2.4 mM NaHCO3, 10 mM HEPES, 2.5 mM sodium pyruvate, 0.82 mM MgCl2, and 0.5% (v/v) penicillin-streptomycin solution, pH=7.55, Sigma) for about 1.5 hours to about 2 hours at about 18° C. under constant agitation to obtain isolated oocytes.
The isolated oocytes were injected with about 4 ng to about 6 ng of human α7 NNR cRNA, kept at about 18° C. in a humidified incubator in modified Barth's solution (90 mM NaCl, 1.0 mM KCl, 0.66 mM NaNO3, 2.4 mM NaHCO3, 10 mM HEPES, 2.5 mM sodium pyruvate, 0.74 mM CaCl2, 0.82 mM MgCl2, 0.5% (v/v) penicillin-streptomycin solution, pH 7.55) and used about 2 to 7 days after injection. Responses were measured by two-electrode voltage clamp using a Parallel Oocyte Electrophysiology Test Station (Abbott, Abbott Park, Ill.) (see for example, Trumbull, J. D., et al., Receptors Channels, 2003, 9: 19-28, which is incorporated herein by reference). During recordings, the oocytes were bathed in Ba^2+-OR2 solution (90 mM NaCl, 2.5 mM KCl, 2.5 mM BaCl2, 1.0 mM MgCl2, 5.0 mM HEPES, and 0.0005 mM atropine, pH 7.4) to prevent activation of Ca^2+-dependent currents and held at −60 mV at room temperature (about 20° C.). Test compounds were pre-applied alone for […] and subsequently in the presence of 0.1 mM acetylcholine (ACh) as the agonist. The data were expressed as percentage potentiation of the acetylcholine-evoked current normalized to the response of reference PAM (at 10 μM, N′-[(2Z)-3-(2,2-difluoro-1,3-benzodioxol-5-yl)-5-methyl-1,3-thiazol-2(3 H)-ylidene]-N,N-dimethylurea) taken as 100% and the response to submaximum ACh without any PAM as 0%.

σ2 receptors = target: T2, σ2 receptors (Rattus norvegicus, UniProt Q5U3Y7); assay: Sigma receptor binding assay, σ2 ([3H]1,3-di(2-tolyl)guanidine displacement); settings: test compound 10 μM; rat cerebral cortex
T2 construct: The origin of the (σ1 and σ2 receptors were Jurkat cells and rat cerebral cortex, respectively); from tissue; host or cells: rat cerebral cortex
T2 sequence (Q5U3Y7 1-176): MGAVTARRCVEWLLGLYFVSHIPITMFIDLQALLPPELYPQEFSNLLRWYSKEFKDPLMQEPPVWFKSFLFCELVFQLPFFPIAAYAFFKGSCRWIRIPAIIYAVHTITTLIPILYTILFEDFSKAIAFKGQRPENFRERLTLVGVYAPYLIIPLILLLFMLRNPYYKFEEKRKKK
Description: (§1) Sigma receptors are binding sites that interact with several psychoactive agents. Inhibition of specific binding of known ligands to sigma receptors (σ1 and σ2) was used to determine the selectivity of test compounds. The assays were performed as described previously in the literature (non-selective σ: Shirayama, Y., et al. Eur. J. Pharmacol. (1993), 237: 117-126. σ1: Ganapathy, M. E., et al. J. Pharmacol. Exp. Ther. (1999) 289: 251-260. σ2: Bowen, M. D., et al. Mol. Neuropharmacol. (1993) 3: 117-126.). The origin of the non-selective a receptors was rat cerebral cortex. The origin of the (σ1 and σ2 receptors were Jurkat cells and rat cerebral cortex, respectively.
(§2) Affinity for the receptors was determined by competitive displacement of specific ligands (8 nM of [^3H] 1,3-di(2-tolyl)guanidine for non-selective σ, 8 nM of [^3H](+)pentazocine for σ1 and 5 nM of [^3H]1,3-di(2-tolyl)guanidine for σ2) by test compounds. Nonspecific binding was determined by addition of an excess of an unlabelled binder (10 μM haloperidol).
(§3) The results are expressed as a percent inhibition of control specific binding (100−((measured specific binding/control specific binding)×100)) obtained in the presence of test compound (10 μM) as shown in Table 1. In addition, Table 1 includes data for the selected compounds from the voltage-clamp in Xenopus laevis oocytes assay.

σ1 receptors = target: T3, σ1 receptors (Homo sapiens, UniProt Q99720); assay: Sigma receptor binding assay, σ1 ([3H](+)pentazocine displacement, Jurkat cells); settings: test compound 10 μM
T3 construct: The origin of the (σ1 and σ2 receptors were Jurkat cells and rat cerebral cortex, respectively); endogenous in cells; host or cells: Jurkat cells
T3 sequence (Q99720 whole entry): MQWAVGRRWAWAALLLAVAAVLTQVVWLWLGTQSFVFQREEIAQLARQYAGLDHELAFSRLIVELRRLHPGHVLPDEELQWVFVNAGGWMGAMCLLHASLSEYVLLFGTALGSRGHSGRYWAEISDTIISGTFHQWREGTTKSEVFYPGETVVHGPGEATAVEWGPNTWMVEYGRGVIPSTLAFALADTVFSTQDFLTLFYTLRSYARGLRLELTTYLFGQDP
Description: as §1, §2, §3

[1] = test system: non-selective σ receptors; assay: Sigma receptor binding assay, non-selective σ ([3H]1,3-di(2-tolyl)guanidine displacement); settings: test compound 10 μM; rat cerebral cortex
Description: as §1, §2, §3

sensory gating T:C ratio = assay: Sensory gating deficit in DBA/2 mice (N40 gating) assay; type: in vivo; settings: dose 0.01 μmol/kg
Description: Sensory gating is a basic central nervous system function that facilitates attending to important stimuli, and ignoring irrelevant background noise. A practical example of sensory gating is the ability to follow a conversation at a loud party. An experimental measure of sensory gating is the suppression of brainwave (evoked potential) responding to repetitive auditory stimuli. Schizophrenic patients can not suppress responding to repetitive stimuli, and are therefore considered to have sensory gating deficiencies.
DBA/2 mice (20-25 g, 8-10 week, Harlan) were used for gating experiments and handled in accordance with approved Association for Assessment and Accreditation of Laboratory Animal Care procedures. Mice were given food and water ad libitum and maintained on a 12-hour light/dark cycle (lights on at 0600 hours).
The surgical techniques employed were similar to those previously described (Connolly P M, et al. (2003) Brain Res 992(1):85-95). […]
To obtain EEG and evoked potentials (EPs), unanesthetized mice were recorded in acoustically isolated chambers (Med Associates). EEG biosignals were recorded from freely moving mice using flexible cable tethers and electrical swivels (Plastics One) and amplified with differential AC amplifiers (Grass Instrument Division, Astro-Med, West Warwick, R.I. USA). […]

[2] = test system: formalin-induced nociceptive behavior; assay: Formalin-induced persistent nociceptive behavior assay; type: in vivo; settings: mice; 10 mg/kg subcutaneously 10 minutes prior to formalin; phase 2, 20-45 minutes post formalin
Description: Nociception was assessed using the formalin test. The mice were placed in open plexiglass observation chambers for 30 minutes to allow them to acclimate to their surroundings: then they were removed for formalin administration. Mice were gently restrained while the dorsum of the hind paw was injected with 20 μL of 2.5% formalin into the plantar surface of the right hind paw with a 30-gauge needle. The animals were returned to the chambers and nociceptive behavior was observed immediately after formalin injection. Mirrors were placed in each chamber to enable unhindered observation. Nociceptive behavior was quantified as the time licking the injected paw for continuous 5 minutes (phase 1) and 20-45 minutes (phase 2), following formalin injection. Formalin-induced flinching/licking behavior was biphasic. The initial acute phase (phase 1.0-5 minutes) was followed by a relatively short quiescent period, which was then followed by a prolonged tonic response (phase 2, 20-45 minutes).

α7 NNRs = α7 NNRs (Homo sapiens, UniProt P36544); settings: IMR-32 cells
α7 NNRs, sequence (P36544 23-502): as the sequence (P36544 23-502) above
Description: Although cell types such as IMR-32 neuroblastoma and neurons are known to contain several nicotinic receptor subunits, α7 selective agonists in the present assay selectively stimulate calcium responses only in the presence of PAMs. Any suitable selective α7 agonist can be used.
IMR-32 neuroblastoma cells (ATCC) were grown to confluency in 162 cm^2 tissue culture flasks in minimum essential media supplemented with 10% fetal bovine serum and 1 mM sodium pyruvate, 0.1 mM non-essential amino acids and 1% antibiotic-antimycotic. […]
Calcium flux was measured using a calcium-3 assay kit (Molecular Devices, Sunnyvale, Calif.) or Fluo-4 (Invitrogen, Carlsbad, Calif.). […] Fluorescence measurements were read simultaneously from all the wells by a Fluorometric Imaging Plate Reader (FLIPR) at an excitation wavelength of 480 nm and an emission wavelength of 520 nm. Baseline fluorescence was measured for the first 10 seconds at which 50 μL of 3× concentrations of modulator/test compounds were added to the cell plate and incubated for three to five minutes. The fluorescence intensity was captured every second for the first 1 minute followed by every 2-5 seconds for an additional two to four minutes. This procedure was followed by 50 μL of 4× concentration of agonist and readings were taken for a period of three to five minutes as described above. […]

Row | SMILES | Voltage-Clamp in Xenopus laevis Oocytes % max (degree of normalized potentiation) (human α7 NNR) | EC50 (human α7 NNR) | inhibition at 10 µM (σ2 receptors) | inhibition at 10 µM (σ1 receptors) | % Inhibition of Binding at 10 μM σ [1] | reduction of T:C (test:conditioned) ratios compared to vehicle (sensory gating T:C ratio) | reduction in licking duration (nociceptive behavior), phase 2 [2] | calcium response to agonist in the presence of an allosteric modulator (α7 NNRs)
1 | O=C(NCc1cccc(-n2cccn2)c1)c1ccc(SC(F)(F)F)cc1 [Example 12, N-[3-(1H-pyrazol-1-yl)benzyl]-4-[(trifluoromethyl)thio]benzamide] | 61% | 3.7 µM | – | – | – | – | – | –
2 | CN(C)c1ccc(CNC(=O)c2ccc(SC(F)(F)F)cc2)cc1 [Example 17, N-[4-(dimethylamino)benzyl]-4-[(trifluoromethyl)thio]benzamide] | 94% | 0.18 µM | -1% | 8% | – | – | – | –
3 | Nc1ccc(CNC(=O)c2ccc(SC(F)(F)F)cc2)cc1 [Example 19, N-(4-aminobenzyl)-4-[(trifluoromethyl)thio]benzamide] | 120% | 5.4 µM | – | – | 6% | – | – | –
4 | CNc1ccc(CNC(=O)c2ccc(SC(F)(F)F)cc2)cc1 [Example 20, N-[4-(methylamino)benzyl]-4-[(trifluoromethyl)thio]benzamide] | 99% | 0.097 µM | – | – | 39% | 23.7±8.9% | 68% | –
5 | CNc1ccc(CNC(=O)c2ccc(SC(F)F)cc2)cc1 [Example 22, 4-[(difluoromethyl)thio]-N-[4-(methylamino)benzyl]benzamide] | 115% | 1.2 µM | -4% | 21% | – | – | – | –
6 | O=C(Cc1ccc(NCC2CC2)cc1)Nc1ccc(SC(F)F)cc1 [Example 43, 2-{4-[(cyclopropylmethyl)amino]phenyl}-N-{4-[(difluoromethyl)thio]phenyl}acetamide] | 2% | > 10 µM | 34% | 84% | – | – | – | –
7 | CCN1C[C@]2(COC(=O)c3ccccc3N3C(=O)C[C@H](C)C3=O)CC[C@H](OC)[C@@]34[C@@H]5C[C@H]6[C@H](OC)[C@@H]5[C@](O)(C[C@@H]6OC)[C@@](O)([C@@H](OC)[C@H]23)[C@@H]14 [methyllycaconitine] | – | – | – | – | – | – | – | abolished the response
